The target in this test is T1, NMDA receptor composed of four subunits consisting of two sets of heterodimers of NR1 and NR2B (human GRIN1 and GRIN2B-expressing HEK293 cells) (Homo sapiens, UniProt Q13224).
T1 construct: host or cells: HEK293 (tetracycline-inducible expression)
T1 sequence (Q13224 27-1484, other chains not shown): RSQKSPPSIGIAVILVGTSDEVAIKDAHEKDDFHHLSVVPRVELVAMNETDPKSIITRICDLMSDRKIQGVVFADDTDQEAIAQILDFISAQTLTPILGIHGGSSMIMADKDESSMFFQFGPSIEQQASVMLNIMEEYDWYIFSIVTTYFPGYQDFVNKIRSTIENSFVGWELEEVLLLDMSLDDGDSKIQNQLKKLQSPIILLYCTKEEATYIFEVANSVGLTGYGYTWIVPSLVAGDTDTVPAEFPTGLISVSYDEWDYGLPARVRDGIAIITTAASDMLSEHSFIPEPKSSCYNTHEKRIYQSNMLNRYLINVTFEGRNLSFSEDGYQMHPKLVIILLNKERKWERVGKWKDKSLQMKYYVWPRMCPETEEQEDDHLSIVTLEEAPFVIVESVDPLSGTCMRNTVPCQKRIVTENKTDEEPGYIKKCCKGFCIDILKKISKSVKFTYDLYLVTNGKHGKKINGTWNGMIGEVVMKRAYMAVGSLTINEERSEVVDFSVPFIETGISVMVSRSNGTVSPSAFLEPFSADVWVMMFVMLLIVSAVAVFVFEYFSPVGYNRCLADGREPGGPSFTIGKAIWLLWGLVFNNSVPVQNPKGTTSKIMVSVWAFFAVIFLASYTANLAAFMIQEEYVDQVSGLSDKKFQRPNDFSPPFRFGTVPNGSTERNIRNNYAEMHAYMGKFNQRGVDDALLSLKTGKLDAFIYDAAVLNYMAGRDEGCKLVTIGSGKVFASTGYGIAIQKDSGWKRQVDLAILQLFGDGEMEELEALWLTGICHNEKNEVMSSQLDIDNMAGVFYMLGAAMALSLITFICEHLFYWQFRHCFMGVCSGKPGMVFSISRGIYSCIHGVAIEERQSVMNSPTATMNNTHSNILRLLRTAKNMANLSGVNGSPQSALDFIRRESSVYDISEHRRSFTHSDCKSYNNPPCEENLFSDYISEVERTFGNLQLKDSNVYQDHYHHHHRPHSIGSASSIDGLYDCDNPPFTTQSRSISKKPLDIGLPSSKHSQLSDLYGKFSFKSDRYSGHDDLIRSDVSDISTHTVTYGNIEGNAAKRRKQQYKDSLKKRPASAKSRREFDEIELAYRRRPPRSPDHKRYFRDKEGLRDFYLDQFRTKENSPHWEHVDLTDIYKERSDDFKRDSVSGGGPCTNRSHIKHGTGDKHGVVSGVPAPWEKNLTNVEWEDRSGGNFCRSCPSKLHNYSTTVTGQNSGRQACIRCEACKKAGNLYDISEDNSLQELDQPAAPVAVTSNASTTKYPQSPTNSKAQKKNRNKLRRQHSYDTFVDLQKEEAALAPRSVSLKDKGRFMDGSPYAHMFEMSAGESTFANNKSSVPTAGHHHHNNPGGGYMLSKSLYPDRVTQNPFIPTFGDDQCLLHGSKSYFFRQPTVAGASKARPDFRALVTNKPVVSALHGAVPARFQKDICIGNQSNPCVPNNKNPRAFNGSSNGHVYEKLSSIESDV
Put plainly: NR2B Ca2+ influx assay. Type of test: cell-based. To be noted: 10 μM compound, glutamic acid/glycine-induced Ca2+ influx, FLIPR, read-out: inhibitory rate (10 μM compound concentration). How it is done:
In order to confirm an “antagonistic action on an NMDA receptor containing the NR2B subunit” which the compound of the present invention has, inhibitory effect on the NMDA receptor activation was evaluated using “NMDA receptor composed of four subunits consisting of two sets of heterodimers of NR1 and NR2B”-expressing human fetal renal cells, specifically human glutamate ionotropic receptor NMDA type subunit 1 (GRIN1) and human glutamate ionotropic receptor NMDA type subunit 2B (GRIN2B)-expressing HEK293 cells.
As an index of the NMDA receptor activation, intracellular calcium ion (Ca^2+) influx caused by bonding of glycine and glutamate to NR1 and NR2B respectively was used. HEK293 cells were purchased from ChanTest. The cells were cultured in a DMEM/F-12 (COSMO BIO, 10-092-CM) medium containing 10% FBS (fetal bovine serum, AusGene), 100 units/mL penicillin, 100 μg/mL streptomycin, 500 μg/mL neomycin, 100 μg/mL Zeocin and 5 μg/mL Blasticidin at 37° C., 5% CO2. The cells were detached from flask with trypsin the day before the assay, suspended in a seeding medium (DMEM (Invitrogen, 31053) containing 10% FBS, 100 units/mL penicillin and 100 μg/mL streptomycin) at 8×10^5 cells/mL, seeded by 25 μL per well in a 384-well plate (Falcon, 356663) at 20000 cells/well, and cultured overnight in an incubator. On the day of the assay, tetracycline (Wako Pure Chemical Industries, 209-16561) was diluted with the seeding medium at 2 μg/mL, and the dilution was added at 25 μL/well to the plate seeded with the cells, and the cells were cultured for 2 hr in an incubator. Thereafter, the medium was removed, and the cells were washed with 50 μL/well of assay buffer (137 mM NaCl, 4 mM KCl, 1.8 mM CaCl2, 10 mM HEPES (pH 7.2), 10 mM Glucose, and 0.1% BSA). Then, a loading buffer (assay buffer containing 2.5 μM Fluo-4AM, 2 mM Amaranth and 1 mM Tartrazine) was added thereto at 25 μL/well, and loading was performed in the incubator for 30 min, and then at room temperature for 15 min. The test compound was diluted with the above-mentioned assay buffer so as to adjust the concentration to 30 μM, the obtained solution (25 μL) was added thereto (the final concentration 10 μM), and the cells were stood for 15 min at room temperature. Using FLIPR (Molecular Devices), 25 μL of an assay buffer containing 30 μM glutamic acid and 30 μM glycine was added thereto, and the fluorescence signal was measured every 3 seconds for 5 min. The relative activity value (inhibitory rate) was calculated when the cumulative total value of the fluorescence value of a well added with a buffer free of glutamic acid and glycine, relative to the cumulative total value of the fluorescence value of each well are regarded as 100% inhibition. The obtained value was evaluated as an inhibitory activity.
As to `Cc1nn2ncccc2c1CNC(=O)c1cnc(OC(F)F)c(Cl)c1` [Example 46, 5-chloro-6-(difluoromethoxy)-N-((2-methylpyrazolo[1,5-b]pyridazin-3-yl)methyl)nicotinamide], the inhibition at 10 µM turned out to be 96%. As for `Cc1ccnn2ncc(CNC(=O)c3ccc(OC(F)(F)F)c(F)c3)c12` [Example 20, 3-fluoro-N-((4-methylpyrazolo[1,5-b]pyridazin-3-yl)methyl)-4-(trifluoromethoxy)benzamide], the inhibition at 10 µM turned out to be 97%.

For the compound `Cc1nn2ncc(CNC(=O)c3cnc(OC(F)F)c(F)c3)c2n1C(F)F` [Example 74, 6-(difluoromethoxy)-N-{[1-(difluoromethyl)-2-methyl-1H-pyrazolo[1,5-b][1,2,4]triazol-7-yl]methyl}-5-fluoropyridine-3-carboxamide], the inhibition at 10 µM was determined as 90%. As for `Cn1ccn2ncc(CNC(=O)c3ccc(Cl)c(F)c3)c12` [Example 63, 4-chloro-3-fluoro-N-((1-methyl-1H-imidazo[1,2-b]pyrazol-7-yl)methyl)benzamide], the inhibition at 10 µM was 96%. Consider `Cn1ccn2ncc(CNC(=O)c3ccc(OC(F)(F)F)cc3)c12` [Example 66, N-((1-methyl-1H-imidazo[1,2-b]pyrazol-7-yl)methyl)-4-(trifluoromethoxy)benzamide], for which the inhibition at 10 µM amounted to 98%. Take `Cc1nn2ncc(CNC(=O)c3cnc(OC(F)F)c(F)c3)c2n1C` [Example 70, 6-(difluoromethoxy)-N-[(1,2-dimethyl-1H-pyrazolo[1,5-b][1,2,4]triazol-7-yl)methyl]-5-fluoropyridine-3-carboxamide]: the inhibition at 10 µM is 100%. For `CCc1nn2ncccc2c1CNC(=O)c1cnc(OC(F)F)c(F)c1` [Example 26, 6-(difluoromethoxy)-N-((2-ethylpyrazolo[1,5-b]pyridazin-3-yl)methyl)-5-fluoronicotinamide], the inhibition at 10 µM was determined as 90%.

As to `O=C(NCc1nnn2ncccc12)c1cnc(OC(F)F)c(F)c1` [Example 23, 6-(difluoromethoxy)-5-fluoro-N-([1,2,3]triazolo[1,5-b]pyridazin-3-ylmethyl)nicotinamide], the inhibition at 10 µM came out at 95%. As to `Cc1nn2ccn(C)c2c1CNC(=O)c1cnc(OC(F)F)c(F)c1` [Example 73, 6-(difluoromethoxy)-N-[(1,6-dimethyl-1H-imidazo[1,2-b]pyrazol-7-yl)methyl]-5-fluoropyridine-3-carboxamide], the inhibition at 10 µM came out at 93%.

In the case of `Cc1nn2cnccc2c1CNC(=O)c1cnc(OC(F)F)c(F)c1` [Example 55, 6-(difluoromethoxy)-5-fluoro-N-((2-methylpyrazolo[1,5-c]pyrimidin-3-yl)methyl)nicotinamide], the inhibition at 10 µM came to 84%. For `O=C(NCc1cnn2ncccc12)c1ccc(OC(F)(F)F)c(F)c1` [Example 5, 3-fluoro-N-(pyrazolo[1,5-b]pyridazin-3-ylmethyl)-4-(trifluoromethoxy)benzamide], the inhibition at 10 µM stood at 99%. Consider `Cc1ccnn2ncc(CNC(=O)c3cnc(OC(F)F)c(F)c3)c12` [Example 37, 6-(difluoromethoxy)-5-fluoro-N-((4-methylpyrazolo[1,5-b]pyridazin-3-yl)methyl)nicotinamide], for which the inhibition at 10 µM stood at 96%.

Consider `Cn1ccn2ncc(CNC(=O)c3ccc(OC4CC4)cc3)c12` [Example 60, 4-(cyclopropyloxy)-N-((1-methyl-1H-imidazo[1,2-b]pyrazol-7-yl)methyl)benzamide], for which the inhibition at 10 µM is 88%. The same measure for `Cc1cnn2ncc(CNC(=O)c3cnc(OC(F)F)c(F)c3)c2c1` [Example 39, 6-(difluoromethoxy)-5-fluoro-N-((5-methylpyrazolo[1,5-b]pyridazin-3-yl)methyl)nicotinamide]: 97%. As for `O=C(NCc1cnn2nccnc12)c1ccc(OC(F)(F)F)c(F)c1` [Example 47, 3-fluoro-N-(pyrazolo[1,5-b][1,2,4]triazin-8-ylmethyl)-4-(trifluoromethoxy)benzamide], the figure is 93%. Take `Cc1nn2cnccc2c1CNC(=O)c1ccc(OC(F)(F)F)c(F)c1` [Example 48, 3-fluoro-N-((2-methylpyrazolo[1,5-c]pyrimidin-3-yl)methyl)-4-(trifluoromethoxy)benzamide]: the inhibition at 10 µM worked out at 90%. On to `Cc1cnn2nnc(CNC(=O)c3cnc(OC(F)F)c(F)c3)c2c1` [Example 50, 6-(difluoromethoxy)-5-fluoro-N-((5-methyl[1,2,3]triazolo[1,5-b]pyridazin-3-yl)methyl)nicotinamide], for which the inhibition at 10 µM was determined as 97%. As for `O=C(NCc1nnn2ncccc12)c1ccc(OC(F)(F)F)c(F)c1` [Example 18, 3-fluoro-N-([1,2,3]triazolo[1,5-b]pyridazin-3-ylmethyl)-4-(trifluoromethoxy)benzamide], the figure is 98%; as for `Cn1ccn2ncc(CNC(=O)c3ccc(C(F)(F)F)s3)c12` [Example 65, N-((1-methyl-1H-imidazo[1,2-b]pyrazol-7-yl)methyl)-5 (trifluoromethyl)thiophene-2-carboxamide], 96%; as for `COCc1nn2ncccc2c1CNC(=O)c1cnc(OC(F)F)c(F)c1` [Example 31, 6-(difluoromethoxy)-5-fIuoro-N-((2-(methoxymethyl)pyrazolo[1,5-b]pyridazin-3-yl)methyl)nicotinamide], 84%. As to `Cc1ccnn2nnc(CNC(=O)c3cnc(OC(F)F)c(Cl)c3)c12` [Example 54, 5-chloro-6-(difluoromethoxy)-N-((4-methyl[1,2,3]triazolo[1,5-b]pyridazin-3-yl)methyl)nicotinamide], the inhibition at 10 µM turned out to be 79%. In the case of `Cc1nn2ncccc2c1CNC(=O)c1cnc(OC(F)F)c(F)c1` [Example 17, 6-(difluoromethoxy)-5-fluoro-N-((2-methylpyrazolo[1,5-b]pyridazin-3-yl)methyl)nicotinamide], the inhibition at 10 µM was 94%.

Take `O=C(NCc1cnn2ncccc12)c1ccc(OC(F)F)c(F)c1` [Example 15, 4-(difluoromethoxy)-3-fluoro-N-(pyrazolo[1,5-b]pyridazin-3-ylmethyl)benzamide]: the inhibition at 10 µM is 98%. For the compound `O=C(NCc1cnn2ccn(CC(F)F)c12)c1ccc(OC(F)(F)F)c(F)c1` [Example 81, N-{[1-(2,2-difluoroethyl)-1H-imidazo[1,2-b]pyrazol-7-yl]methyl}-3-fluoro-4-(trifluoromethoxy)benzamide], the inhibition at 10 µM came out at 96%. For the compound `Cn1ccn2ncc(CNC(=O)c3ccc(OC(F)(F)F)c(F)c3)c12` [Example 57, 3-fluoro-N-((1-methyl-1H-imidazo[1,2-b]pyrazol-7-yl)methyl)-4-(trifluoromethoxy)benzamide], the inhibition at 10 µM was determined as 97%. For the compound `Cc1nn2ncc(CNC(=O)c3ccc(OC(F)(F)F)c(F)c3)c2n1CC(F)F` [Example 78, N-{[1-(2,2-difluoroethyl)-2-methyl-1H-pyrazolo[1,5-b][1,2,4]triazol-7-yl]methyl}-3-fluoro-4-(trifluoromethoxy)benzamide], the inhibition at 10 µM was 81%. As for `Cc1nn2ncc(CNC(=O)c3cnc(OC(F)F)c(Cl)c3)c2n1CC(F)F` [Example 77, 5-chloro-N-{[1-(2,2-difluoroethyl)-2-methyl-1H-pyrazolo[1,5-b][1,2,4]triazol-7-yl]methyl}-6-(difluoromethoxy)pyridine-3-carboxamide], the figure is 54%; as for `O=C(NCc1nnn2ncccc12)c1ccc(OC(F)(F)F)c(Cl)c1` [Example 40, 3-chloro-N-([1,2,3]triazolo[1,5-b]pyridazin-3-ylmethyl)-4-(trifluoromethoxy)benzamide], 98%; as for `O=C(NCc1nnn2ncccc12)c1cnc(OC(F)F)c(Cl)c1` [Example 22, 5-chloro-6-(difluoromethoxy)-N-([1,2,3]triazolo[1,5-b]pyridazin-3-ylmethyl)nicotinamide], 98%.

Regarding `O=C(NCc1cnn2ncccc12)c1ccc(OC(F)F)c(Cl)c1` [Example 7, 3-chloro-4-(difluoromethoxy)-N-(pyrazolo[1,5-b]pyridazin-3-ylmethyl)benzamide], the inhibition at 10 µM was found to be 98%.

Source of the values: US11702419B2, “Heterocyclic compound and use thereof” (Takeda Pharmaceutical Company Limited, priority 2018, dated 2023).
